Among the data in patent US20180370927A1, “MICROBIOCIDAL OXADIAZOLE DERIVATIVES” (SYNGENTA PARTICIPATIONS AG, priority 2015, published 2018) are pest or weed control and inhibition values, retold here.

Where two headings read alike, the source gives them in different places.

Test [1] deals with Puccinia recondita f. Sp. Tritici. The test can be described thus: Puccinia recondita f. sp. tritici / wheat / leaf disc preventative (brown rust). It is filed as in vivo. Particulars: foliar, read-out: disease control compared to untreated control leaf disks. The procedure:
Leaf disks or leaf segments of various plant species are cut from plants grown in a greenhouse. The cut leaf disks or segments are placed in multiwell plates (24-well format) onto water agar. The leaf disks are sprayed with a test solution before (preventative) or after (curative) inoculation. Compounds to be tested are prepared as DMSO solutions (max. 10 mg/mL) which are diluted to the appropriate concentration with 0.025% Tween20 just before spraying. The inoculated leaf disks or segments are incubated under defined conditions (temperature, relative humidity, light, etc.) according to the respective test system. A single evaluation of disease level is carried out 3 to 14 days after inoculation, depending on the pathosystem. Percent disease control relative to the untreated check leaf disks or segments is then calculated.
Example 1: Fungicidal Activity Against Puccinia recondita f. Sp. Tritici/Wheat/Leaf Disc Preventative (Brown Rust)
Wheat leaf segments cv. Kanzler were placed on agar in multiwell plates (24-well format) and sprayed with the formulated test compound diluted in water. The leaf disks were inoculated with a spore suspension of the fungus 1 day after application. The inoculated leaf segments were incubated at 19° C. and 75% relative humidity (rh) under a light regime of 12 hours light/12 hours darkness in a climate cabinet and the activity of a compound was assessed as percent disease control compared to untreated when an appropriate level of disease damage appears in untreated check leaf segments (7 to 9 days after application).
The following compounds at 200 ppm in the applied formulation give at least 80% disease control in this test when compared to untreated control leaf disks under the same conditions, which show extensive disease development.

Test [2] deals with Glomerella lacenarium (Colletotrichum lacenarium). Description: Glomerella lacenarium (Colletotrichum lacenarium) liquid culture / cucumber / preventative (anthracnose). The class given is cell-based. To be noted: read-out: disease control (inhibition of growth, photometric) compared to untreated control. How it is done:
Mycelia fragments or conidia suspensions of a fungus prepared either freshly from liquid cultures of the fungus or from cryogenic storage, are directly mixed into nutrient broth. DMSO solutions of the test compound (max. 10 mg/ml) are diluted with 0.025% Tween20 by a factor of 50 and 10 μL of this solution is pipetted into a microtiter plate (96-well format). The nutrient broth containing the fungal spores/mycelia fragments is then added to give an end concentration of the tested compound. The test plates are incubated in the dark at 24° C. and 96% relative humidity. The inhibition of fungal growth is determined photometrically after 2 to 7 days, depending on the pathosystem, and percent antifungal activity relative to the untreated check is calculated.
Example 4: Fungicidal Activity Against Glomerella lacenarium (Colletotrichum lacenarium) Liquid Culture/Cucumber/Preventative (Anthracnose)
Conidia of the fungus from cryogenic storage are directly mixed into nutrient broth (PDB—potato dextrose broth). After placing a (DMSO) solution of test compound into a microtiter plate (96-well format), the nutrient broth containing the fungal spores is added. The test plates are incubated at 24° C. and the inhibition of growth is measured photometrically 3 to 4 days after application.
The following compounds at 20 ppm in the applied formulation give at least 80% disease control in this test when compared to untreated control under the same conditions, which show extensive disease development.

Setting [3] is: 200 ppm in the applied formulation, wheat leaf segments, preventative, assessed 7 to 9 days after application.
The mark [4] stands for this setting: 20 ppm in the applied formulation, liquid culture in PDB, 24° C., 3 to 4 days after application.

The term inhibition denotes how much of the control response was suppressed. Regarding `C=CCNC(=O)C(=O)NCc1ccc(-c2noc(C(F)(F)F)n2)cc1` [Compound 4.57, N-allyl-N′-[[4-[5-(trifluoromethyl)-1,2,4-oxadiazol-3-yl]phenyl]methyl] oxamide], the pest or weed control at 200 ppm in test [1] (setting [3]) is not below 80%. Moreover, in test [2] (setting [4]), the inhibition at 20 ppm was not below 80%.

For the molecule `CON(Cc1ccc(-c2noc(C(F)(F)F)n2)cc1)C(=O)C(=O)NCc1ccco1` [Compound 4.81, N-(2-furylmethyl)-N′-methoxy-N′-[[4-[5-(trifluoromethyl)-1,2,4-oxadiazol-3-yl]phenyl]methyl] oxamide], the pest or weed control at 200 ppm in test [1] (setting [3]) is not below 80%. For the same molecule, in test [2] (setting [4]), the inhibition at 20 ppm is not below 80%.

On to `CCON(C)C(=O)C(=O)NCc1ccc(-c2noc(C(F)(F)F)n2)cc1` [Compound 4.43, N′-ethoxy-N′-methyl-N-[[4-[5-(trifluoromethyl)-1,2,4-oxadiazol-3-yl]phenyl]methyl] oxamide], for which the pest or weed control at 200 ppm in test [1] (setting [3]) was not below 80%. Further, the inhibition at 20 ppm in test [2] (setting [4]) was not below 80%.

Consider `CN(C(=O)C(=O)Nc1ccc(-c2noc(C(F)(F)F)n2)cc1)C1CCN(C(=O)OC(C)(C)C)C1` (stereo not shown) [Compound 4.22, tert-butyl 3-[methyl-[2-oxo-2-[4-[5-(trifluoromethyl)-1,2,4-oxadiazol-3-yl]anilino]acetyl]amino] pyrrolidine-1-carboxylate], for which the pest or weed control at 200 ppm in test [1] (setting [3]) is not below 80%.

Regarding `CCCC(=O)C(=O)N(Cc1ccc(-c2noc(C(F)(F)F)n2)cc1)CC1CCCO1` (stereo not shown) [Compound 1.13, 2-oxo-N-(tetrahydrofuran-2-ylmethyl)-N-[[4-[5-(trifluoromethyl)-1,2,4-oxadiazol-3-yl]phenyl]methyl]pentanamide], the pest or weed control at 200 ppm in test [1] (setting [3]) is not below 80%. Besides, in test [2] (setting [4]), the inhibition at 20 ppm is not below 80%.

`O=C(NCc1ccccc1)C(=O)NCc1ccc(-c2noc(C(F)(F)F)n2)cc1` [Compound 4.53, N-benzyl-N′-[[4-[5-(trifluoromethyl)-1,2,4-oxadiazol-3-yl]phenyl]methyl] oxamide]: the pest or weed control at 200 ppm in test [1] (setting [3]) is not below 80%.

Take `N#CCCN(CCC#N)C(=O)C(=O)Nc1ccc(-c2noc(C(F)(F)F)n2)cc1` [Compound 4.18, N′,N′-bis(2-cyanoethyl)-N-[4-[5-(trifluoromethyl)-1,2,4-oxadiazol-3-yl]phenyl]oxamide]: the pest or weed control at 200 ppm in test [1] (setting [3]) was not below 80%.

Regarding `O=C(NCc1ccc(-c2noc(C(F)(F)F)n2)cc1)C(=O)NCc1ccco1` [Compound 4.60, N′-(2-furylmethyl)-N-[[4-[5-(trifluoromethyl)-1,2,4-oxadiazol-3-yl]phenyl]methyl] oxamide], the pest or weed control at 200 ppm in test [1] (setting [3]) was not below 80%. In test [2] (setting [4]), the inhibition at 20 ppm is not below 80%.

For the molecule `CON(Cc1ccc(-c2noc(C(F)(F)F)n2)cc1)C(=O)C(=O)NC1CCCC1` [Compound 4.79, N-cyclopentyl-N′-methoxy-N′-[[4-[5-(trifluoromethyl)-1,2,4-oxadiazol-3-yl]phenyl]methyl] oxamide], in test [1] (setting [3]), the pest or weed control at 200 ppm was not below 80%. The inhibition at 20 ppm in test [2] (setting [4]) was not below 80%.

`CON(Cc1ccc(-c2noc(C(F)(F)F)n2)cc1)C(=O)C(=O)NCc1ccccc1` [Compound 4.71, N-benzyl-N′-methoxy-N'-[[4-[5-(trifluoromethyl)-1,2,4-oxadiazol-3-yl]phenyl]methyl] oxamide]: the pest or weed control at 200 ppm in test [1] (setting [3]) is not below 80%. Also, the inhibition at 20 ppm in test [2] (setting [4]) was not below 80%.

With `CON(Cc1ccc(-c2noc(C(F)(F)F)n2)cc1)C(=O)C(=O)Nc1ccccc1` [Compound 4.70, N′-methoxy-N-phenyl-N′-[[4-[5-(trifluoromethyl)-1,2,4-oxadiazol-3-yl]phenyl]methyl] oxamide], the pest or weed control at 200 ppm in test [1] (setting [3]) was not below 80%. The inhibition at 20 ppm in test [2] (setting [4]) is not below 80%.

For `NC(=O)C(=O)N(Cc1ccc(-c2noc(C(F)(F)F)n2)cc1)OCc1ccc(Cl)cc1` [Compound 4.34, N′-[(4-chlorophenyl)methoxy]-N′-[[4-[5-(trifluoromethyl)-1,2,4-oxadiazol-3-yl]phenyl]methyl] oxamide], the pest or weed control at 200 ppm in test [1] (setting [3]) was not below 80%. For the same molecule, the inhibition at 20 ppm in test [2] (setting [4]) is not below 80%.

With `CO/N=C(\C#N)C(=O)N(Cc1ccc(-c2noc(C(F)(F)F)n2)cc1)C1CC1` [Compound 2.15, (1E)-2-[cyclopropyl-[[4-[5-(trifluoromethyl)-1,2,4-oxadiazol-3-yl]phenyl]methyl]amino]-N-methoxy-2-oxo-acetimidoyl cyanide], the pest or weed control at 200 ppm in test [1] is not below 80%. In addition, the inhibition at 20 ppm in test [2] was not below 80%.

Consider `COCCN(Cc1ccccc1)C(=O)C(=O)Nc1ccc(-c2noc(C(F)(F)F)n2)cc1` [Compound 4.15], for which the pest or weed control at 200 ppm in test [1] (setting [3]) is not below 80%. In test [2] (setting [4]), the inhibition at 20 ppm is not below 80%.

`CCCON(Cc1ccc(-c2noc(C(F)(F)F)n2)cc1)C(=O)C(C)=O` [Compound 1.8, 2-oxo-N-propoxy-N-[[4-[5-(trifluoromethyl)-1,2,4-oxadiazol-3-yl]phenyl]methyl]propanamide]: in test [1] (setting [3]), the pest or weed control at 200 ppm was not below 80%. In addition, in test [2] (setting [4]), the inhibition at 20 ppm is not below 80%.

For `CC(C)CC(=O)C(=O)NCc1c(F)cc(-c2noc(C(F)(F)F)n2)cc1F` [Compound 1.69, N-[[2,6-difluoro-4-[5-(trifluoromethyl)-1,2,4-oxadiazol-3-yl]phenyl]methyl]-4-methyl-2-oxo-pentanamide], in test [1] (setting [3]), the pest or weed control at 200 ppm was not below 80%. Moreover, the inhibition at 20 ppm in test [2] (setting [4]) is not below 80%.

As for `CN(C)C(=O)C(=O)N(Cc1ccc(-c2noc(C(F)(F)F)n2)cc1)OCC=C(Cl)Cl` [Compound 4.31, N′-(3,3-dichloroallyloxy)-N,N-dimethyl-N′-[[4-[5-(trifluoromethyl)-1,2,4-oxadiazol-3-yl]phenyl]methyl] oxamide], the pest or weed control at 200 ppm in test [1] (setting [3]) is not below 80%. The inhibition at 20 ppm in test [2] (setting [4]) was not below 80%.

In the case of `NC(=O)C(=O)N(Cc1ccc(-c2noc(C(F)(F)F)n2)cc1)Cc1ccco1` [Compound 4.24, N′-(2-furylmethyl)-N′-[[4-[5-(trifluoromethyl)-1,2,4-oxadiazol-3-yl]phenyl]methyl] oxamide], in test [1] (setting [3]), the pest or weed control at 200 ppm is not below 80%. The inhibition at 20 ppm in test [2] (setting [4]) is not below 80%.

On to `CCNC(=O)C(=O)NCc1ccc(-c2noc(C(F)(F)F)n2)cc1` [Compound 4.49, N-ethyl-N′-[[4-[5-(trifluoromethyl)-1,2,4-oxadiazol-3-yl]phenyl]methyl] oxamide], for which, in test [1] (setting [3]), the pest or weed control at 200 ppm is not below 80%. Moreover, the inhibition at 20 ppm in test [2] (setting [4]) was not below 80%.

`NC(=O)C(=O)N(Cc1ccc(-c2noc(C(F)(F)F)n2)cc1)OCC=C(Cl)Cl` [Compound 4.32, N′-(3,3-dichloroallyloxy)-N′-[[4-[5-(trifluoromethyl)-1,2,4-oxadiazol-3-yl]phenyl]methyl] oxamide]: in test [1] (setting [3]), the pest or weed control at 200 ppm was not below 80%. Besides, in test [2] (setting [4]), the inhibition at 20 ppm was not below 80%.

On to `CON=C(C(=O)N(Cc1ccc(-c2noc(C(F)(F)F)n2)cc1)OC)c1ccccc1` [Compound 2.4, N-methoxy-2-methoxyimino-2-phenyl-N-[[4-[5-(trifluoromethyl)-1,2,4-oxadiazol-3-yl]phenyl]methyl]acetamide], for which the pest or weed control at 200 ppm in test [1] (setting [3]) was not below 80%. Besides, in test [2] (setting [4]), the inhibition at 20 ppm is not below 80%.

For the molecule `CC(C)CNC(=O)C(=O)NCc1ccc(-c2noc(C(F)(F)F)n2)cc1` [Compound 4.50, N′-isobutyl-N-[[4-[5-(trifluoromethyl)-1,2,4-oxadiazol-3-yl]phenyl]methyl] oxamide], the pest or weed control at 200 ppm in test [1] (setting [3]) is not below 80%.
